Source: patent US20240228535A1 (priority 2022, published 2024)

molecular target: SARS2 coronavirus 3CL protease (Severe acute respiratory syndrome coronavirus 2, UniProt P0DTD1); experiment: biochemical; settings: 5 nM enzyme, 30 min pre-incubation with compound, 15 μM peptide substrate, 4 h at room temperature; read-out: FRET Potency (nM); IC50 values in the SARS2 3CLPro FRET assay

SMILES | IC50 [nM]
CNC(=O)C(=O)[C@H](C[C@@H]1C[C@@H](C)NC1=O)NC(=O)c1cc(Cl)ccc1NC(=O)c1cnc(C(F)(F)F)nc1 [Example 215, N-[4-chloro-2-[[(1S)-3-(methylamino)-1-[[(3S,5R)-5-methyl-2-oxo-pyrrolidin-3-yl]methyl]-2,3-dioxo-propyl]carbamoyl]phenyl]-2-(trifluoromethyl)pyrimidine-5-carboxamide] | 10.1
CNC(=O)C(=O)[C@H](C[C@@H]1C[C@@H](C)NC1=O)NC(=O)c1cc(Cl)ccc1NC(=O)c1nccc(C(F)(F)F)n1 [Example 216] | 9.6
CNC(=O)C(=O)[C@H](C[C@@H]1C[C@@H](C)NC1=O)NC(=O)c1cc(Cl)ccc1NC(=O)c1ncc(C(F)(F)F)cn1 [Example 217, N-[4-chloro-2-[[(1S)-3-(methylamino)-1-[[(3S,5R)-5-methyl-2-oxo-pyrrolidin-3-yl]methyl]-2,3-dioxo-propyl]carbamoyl]phenyl]-5-(trifluoromethyl)pyrimidine-2-carboxamide] | 6.7
CNC(=O)C(=O)[C@H](C[C@@H]1C[C@@H](C)NC1=O)NC(=O)c1cc(Cl)ccc1NC(=O)OCC1CCCC(F)(F)C1 (stereo partly drawn) [Example 218, (3,3-difluorocyclohexyl)methyl N-[4-chloro-2-[[(1S)-3-(methylamino)-1-[[(3S,5R)-5-methyl-2-oxo-pyrrolidin-3-yl]methyl]-2,3-dioxo-propyl]carbamoyl]phenyl] carbamate] | 6.8
CNC(=O)C(=O)[C@H](C[C@@H]1C[C@@H](C)NC1=O)NC(=O)c1cc(Cl)ccc1NC(=O)OCC1CCCC(F)(F)C1 (stereo partly drawn) [Example 219, (3,3-difluorocyclohexyl)methyl N-[4-chloro-2-[[(1S)-3-(methylamino)-1-[(3S,5R)-5-methyl-2-oxo-pyrrolidin-3-yl]methyl]-2,3-dioxo-propyl]carbamoyl]phenyl] carbamate] | 7.1
C[C@@H]1C[C@@H](C[C@H](NC(=O)c2cc(C(F)F)ccc2NC(=O)C2(C(F)(F)F)CC2)C(=O)C(=O)NC2CC2)C(=O)N1 [Example 220, N-[(1S)-3-(cyclopropylamino)-1-[[(3S,5R)-5-methyl-2-oxo-pyrrolidin-3-yl]methyl]-2,3-dioxo-propyl]-5-(difluoromethyl)-2-[[1-(trifluoromethyl)cyclopropane-carbonyl]amino]benzamide] | 60.3
CNC(=O)C(=O)[C@H](C[C@@H]1C[C@@H](C)NC1=O)NC(=O)c1cc(Cl)ccc1NC(=O)[C@@H](N(C)C(=O)OC)C(C)(C)C [Example 221] | 41.9
CNC(=O)C(=O)[C@H](C[C@@H]1C[C@@H](C)NC1=O)NC(=O)c1cc(C(F)F)ccc1NC(=O)c1ccnc(C(F)(F)F)c1 [Example 222, N-[4-(difluoromethyl)-2-[[(1S)-3-(methylamino)-1-[[(3S,5R)-5-methyl-2-oxo-pyrrolidin-3-yl]methyl]-2,3-dioxo-propyl]carbamoyl]phenyl]-2-(trifluoromethyl)pyridine-4-carboxamide] | 5.2
CNC(=O)C(=O)[C@H](C[C@@H]1C[C@@H](C)NC1=O)NC(=O)c1cc(Cl)c(F)cc1NC(=O)c1ccc(C(F)(F)F)nc1 [Example 223, N-[4-chloro-5-fluoro-2-[[(1S)-3-(methylamino)-1-[[(3S,5R)-5-methyl-2-oxo-pyrrolidin-3-yl]methyl]-2,3-dioxo-propyl]carbamoyl]phenyl]-6-(trifluoromethyl)pyridine-3-carboxamide] | 9
CNC(=O)C(=O)[C@H](C[C@@H]1C[C@@H](C)NC1=O)NC(=O)c1cc(Cl)cc(F)c1NC(=O)c1ccnc(C(F)(F)F)c1 [Example 224, N-[4-chloro-2-fluoro-6-[[(1S)-3-(methylamino)-1-[[(3S,5R)-5-methyl-2-oxo-pyrrolidin-3-yl]methyl]-2,3-dioxo-propyl]carbamoyl]phenyl]-2-(trifluoromethyl)pyridine-4-carboxamide] | 7.2
C[C@@H]1C[C@@H](C[C@H](NC(=O)c2cc(Cl)ccc2NC(=O)c2ccc(C(F)(F)F)nc2)C(=O)C(=O)NC2CC2)C(=O)N1 [Example 225, N-[4-chloro-2-[[(1S)-3-(cyclopropylamino)-1-[[(3S,5R)-5-methyl-2-oxo-pyrrolidin-3-yl]methyl]-2,3-dioxo-propyl]carbamoyl]phenyl]-6-(trifluoromethyl)pyridine-3-carboxamide] | 6.8
C[C@@H]1C[C@@H](C[C@H](NC(=O)c2cc(Cl)ccc2NC(=O)c2cnc(C(F)(F)F)cn2)C(=O)C(=O)NC2CC2)C(=O)N1 [Example 226, N-[4-chloro-2-[[(1S)-3-(cyclopropylamino)-1-[[(3S,5R)-5-methyl-2-oxo-pyrrolidin-3-yl]methyl]-2,3-dioxo-propyl]carbamoyl]phenyl]-5-(trifluoromethyl)pyrazine-2-carboxamide] | 19.1
CNC(=O)C(=O)[C@H](C[C@@H]1C[C@@H](C)NC1=O)NC(=O)c1cc(Cl)ccc1NC(=O)C(C)c1ccnc(C(F)(F)F)c1 (stereo partly drawn) [Example 227, 5-chloro-N-[(1S)-3-(methylamino)-1-[[(3S,5R)-5-methyl-2-oxo-pyrrolidin-3-yl]methyl]-2,3-dioxo-propyl]-2-[2-[2-(trifluoromethyl)-4-pyridyl]propanoylamino] benzamide] | 7.4
CNC(=O)C(=O)[C@H](C[C@@H]1C[C@@H](C)NC1=O)NC(=O)c1cc(Cl)ccc1NC(=O)C(C)c1ccnc(C(F)(F)F)c1 (stereo partly drawn) [Example 228, 5-chloro-N-[(1S)-3-(methylamino)-1-[[(3S,5R)-5-methyl-2-oxo-pyrrolidin-3-yl]methyl]-2,3-dioxo-propyl]-2-[2-[2-(trifluoromethyl)-4-pyridyl]propanoylamino] benzamide] | 6.1
CNC(=O)C(=O)[C@H](C[C@@H]1C[C@@H](C)NC1=O)NC(=O)c1cc(Cl)cc(Cl)c1NC(=O)c1ccnc(C(F)(F)F)c1 [Example 231, N-[2,4-dichloro-6-[[(1S)-3-(methylamino)-1-[[(3S,5R)-5-methyl-2-oxo-pyrrolidin-3-yl]methyl]-2,3-dioxo-propyl]carbamoyl]phenyl]-2-(trifluoromethyl)pyridine-4-carboxamide] | 5.6
C[C@@H]1C[C@@H](C[C@H](NC(=O)c2cc(C(F)F)ccc2NC(=O)c2ccnc(C(F)(F)F)c2)C(=O)C(=O)NC2CC2)C(=O)N1 [Example 232, N-[2-[[(1S)-3-(cyclopropylamino)-1-[[(3S,5R)-5-methyl-2-oxo-pyrrolidin-3-yl]methyl]-2,3-dioxo-propyl]carbamoyl]-4-(difluoromethyl)phenyl]-2-(trifluoromethyl)pyridine-4-carboxamide] | 10.4
C[C@@H]1C[C@@H](C[C@H](NC(=O)c2c(NC(=O)c3ccnc(C(F)(F)F)c3)cc(F)c(F)c2F)C(=O)C(=O)NC2CC2)C(=O)N1 [Example 233, N-[2-[[(1S)-3-(cyclopropylamino)-1-[[(3S,5R)-5-methyl-2-oxo-pyrrolidin-3-yl]methyl]-2,3-dioxo-propyl]carbamoyl]-3,4,5-trifluoro-phenyl]-2-(trifluoromethyl)pyridine-4-carboxamide] | 44
O=C(NC1CC1)C(=O)[C@H](C[C@@H]1CCCNC1=O)NC(=O)c1cc(Cl)ccc1NC(=O)c1ccnc(C(F)(F)F)c1 [Example 234, N-[4-chloro-2-[[(1S)-3-(cyclopropylamino)-2,3-dioxo-1-[[(3S)-2-oxo-3-piperidyl]methyl]propyl]carbamoyl]phenyl]-2-(trifluoromethyl)pyridine-4-carboxamide] | 17.1
O=C(CCC(F)(F)F)Nc1ccc(Cl)cc1C(=O)N[C@@H](C[C@@H]1CCCNC1=O)C(=O)C(=O)NC1CC1 [Example 235, 5-chloro-N-[(1S)-3-(cyclopropylamino)-2,3-dioxo-1-[[(3S)-2-oxo-3-piperidyl]methyl]propyl]-2-(4,4,4-trifluorobutanoylamino) benzamide] | 15.1
